# According to US4294843A, “Anti-protozoal oxadiazole derivatives” (Burroughs Wellcome Co., priority 1978, dated 1981):
# Where a name gives a salt, the structure may show the parent alone.
# Columns and labels:
# P. berghei = experiment: percentage inhibition of P. berghei (blood parasitaemia) in mice, seven oral doses; assay type: in vivo; conditions: Plasmodium berghei, 96 h, parasitaemia on fourth day; for inhibition in vivo at 100 mg/kg: 7 × 100 mg/kg oral; for inhibition in vivo at 10 mg/kg: 7 × 10 mg/kg oral
# Description: Groups of five mice were inoculated intraperitoneally with the normal strain of P. berghei. The mice on test received seven oral doses of drug beginning on the afternoon of the day of infection then twice a day for the following three days. Blood parasitaemias were estimated on the fourth day and compared with those of the untreated controls.
# The results are given in Table 1, the results being expressed as percentage inhibition of P. berghei.
# [1] = LD50 in female rats, oral by gavage; conditions: rat, in vivo, 10% w/v suspension in corn oil
# Protocol: 1. The LD50 of the compound of Example 3, both as the free base and the hydrochloride salt was determined in female rats by standard techniques the compound being administered as a 10% w/v suspension in corn oil orally by gavage.
SMILES,inhibition in vivo at 100 mg/kg (P. berghei),inhibition in vivo at 10 mg/kg (P. berghei),LD50 [1]
"COc1cc(C=Nc2ccccc2SCc2ncon2)cc(OC)c1OC [Example 41, 3-[2-(3,4,5-Trimethoxybenzylideneamino)phenylthiomethyl]-1,2,4-oxadiazole]",100%,–,–
"Nc1cc(Cl)ccc1SCC1=NOCN1 [Example 52, 3-(2-Amino-4-chlorophenylthiomethyl)-4,5-dihydro-1,2,4-oxadiazole]",–,95%,–
"Clc1ccc(CNc2ccccc2SCc2ncon2)cc1 [Example 42, 3-[2-(4-Chlorobenzylamino)phenylthiomethyl]1,2,4-oxadiazole]",100%,93%,–
"CN(C)c1ccccc1SCc1ncon1 [Example 1, 3-(2-Dimethylaminophenylthiomethyl)-1,2,4-oxadiazole]",100%,65%,–
"OC(CNc1ccccc1SCc1ncon1)COc1ccccc1 (centres unmarked) [Example 43, 2-Hydroxy-1-[2-(1,2,4-oxadiazol-3-ylmethylthio)anilino]-3-phenoxypropane]",60%,24%,–
"CN(C)c1ccccc1SCc1noc(CSc2ccc(Cl)cc2)n1 [Example 48, 5-(4-chlorophenylthiomethyl)-3-(2-dimethylaminophenylthiomethyl)-1,2,4-oxadiazole]",88%,22%,–
"COc1ccc(SCc2ncon2)c(N(C)C)c1 [Example 17, 3-(2-Dimethylamino-4-methoxyphenylthiomethyl)-1,2,4-oxadiazole]",62%,–,–
"Clc1ccccc1C=Nc1ccccc1SCc1ncon1 [Example 40, 3-[2-(2-Chlorobenzylideneamino)phenylthiomethyl]-1,2,4-oxadiazole]",100%,82%,–
"CN(C)c1cc(Cl)ccc1SCc1ncon1 [Example 18, 3-(4-Chloro-2-dimethylaminophenylthiomethyl)-1,2,4-oxadiazole]",95%,–,–
"CN(C)c1ccccc1SCC(N)=NO [Example 56, 2-(2-Dimethylaminophenylthio)acetamidoxime]",–,100%,–
"O=C(Nc1ccccc1SCc1ncon1)c1ccc(Cl)cc1 [Example 25, 3-[2-(4-chlorobenzamido)phenylthiomethyl]-1,2,4-oxadiazole]",99.9%,64%,–
"COc1ccc(C=Nc2ccccc2SCc2ncon2)cc1 [Example 39, 3-[2-(4-Methoxybenzylideneamino)phenylthiomethyl]-1,2,4-oxadiazole]",99.7%,73%,–
"CS(=O)(=O)Nc1ccccc1SCc1ncon1 [Example 31, 3-(2-Methylsulphonamidophenylthiomethyl)-1,2,4-oxadiazole]",–,33%,–
"CNc1ccccc1SCc1ncon1 [Example 4, 3-(2-Methylaminophenylthiomethyl)-1,2,4-oxadiazole]",97%,67%,–
"Nc1cc(F)ccc1SCc1ncon1 [Example 16, 3-(2-Amino-4-fluorophenylthiomethyl)-1,2,4-oxadiazole]",100%,81%,–
"Cc1ccc(S(=O)(=O)Nc2ccccc2SCc2ncon2)cc1 [Example 32, 3-[2-(p-toluenesulphonamido)phenylthiomethyl]-1,2,4-oxadiazole]",43%,–,–
"Nc1cc(Br)ccc1SCc1ncon1 [Example 10, 3-(2-Amino-4-bromophenylthiomethyl)-1,2,4-oxadiazole]",99%,85%,–
"O=[N+]([O-])c1ccc(Sc2ccc(NC(=S)Nc3ccccc3SCc3ncon3)cc2)cc1 [Example 37, N-[2-(1,2,4-oxadiazol-3-yl-methylthio)phenyl]-N^1-4-(4-nitrophenylthio)phenyl thiourea]",22%,50%,–
"S=C(Nc1ccccc1)Nc1ccccc1SCc1ncon1 [Example 33, N-[2-(1,2,4-oxadiazol-3-yl-methylthio)phenyl]-N^1-phenylthiourea]",–,10%,–
"O=[N+]([O-])c1ccccc1SNc1ccccc1SCc1ncon1 [Example 44, 3-[2-(2-Nitrophenylsulphenylamino)phenyl]thiomethyl-1,2,4-oxadiazole]",27%,–,–
"Nc1ccccc1SCc1noc(CSc2ccccc2N)n1 [Example 13, 3,5-Di-(2-aminophenylthiomethyl)-1,2,4-oxadiazole]",–,77%,–
"Cc1ccc(N)c(SCc2ncon2)c1 [Example 7, 3-(2-Amino-5-methylphenylthiomethyl)-1,2,4-oxadiazole]",99%,46%,–
"Cc1nc(CSc2ccccc2N)no1 [Example 15, 3-(2-Aminophenylthiomethyl)-5-methyl-1,2,4-oxadiazole hydrochloride]",86%,4%,–

SMILES,inhibition in vivo at 100 mg/kg (P. berghei),inhibition in vivo at 10 mg/kg (P. berghei),LD50 [1]
"Nc1ccccc1SCc1noc(-c2ccc(Cl)cc2)n1 [Example 11, 3-(2-Aminophenylthiomethyl)-5-(4-chlorophenyl)-1,2,4-oxadiazole]",99%,54%,–
"O=C(Nc1ccccc1SCc1ncon1)c1ccccc1 [Example 26, 3-(2-Benzamidophenythiomethyl)-1,2,4-oxadiazole]",–,52%,–
"Cc1ccc(SCc2ncon2)c(N)c1 [Example 6, 3-(2-Amino-4-methylphenylthiomethyl)-1,2,4-oxadiazole]",99%,55%,–
"O=C(Nc1ccccc1SCc1ncon1)OCc1ccccc1 [Example 21, 3-(2-Benzyloxycarbonylaminophenylthiomethyl)-1,2,4-oxadiazole]",100%,68%,–
"CC(C)(C)C(=O)Nc1ccccc1SCc1ncon1 [Example 28, 3-(2-Trimethylacetamidophenylthiomethyl)1,2,4-oxadiazole]",53%,–,–
"COC(=O)Nc1ccccc1SCc1ncon1 [Example 20, 3-(2-methoxycarbonylaminophenylthiomethyl)-1,2,4-oxadiazole]",97.5%,–,–
"CC(=O)Nc1ccccc1SCc1ncon1 [Example 23, 3-(2-Acetylaminophenylthiomethyl)-1,2,4-oxadiazole]",100%,38%,–
"CCOC(=O)Nc1ccccc1SCc1ncon1 [Example 19, 3-(2-Ethoxycarbonylaminophenylthiomethyl)-1,2,4-oxadiazole]",99.9%,52%,–
"Nc1ccccc1SCc1noc(-c2ccccc2)n1 [Example 14, 3-(2-Aminophenylthiomethyl)-5-phenyl-1,2,4-oxadiazole]",100%,77%,–
"Nc1cc(Cl)ccc1SCc1ncon1 [Example 8, 3-(2-Amino-4-chlorophenylthiomethyl)-1,2,4-oxadiazole]",100%,89%,–
"COc1ccc(C(=O)Nc2ccccc2SCc2ncon2)cc1 [Example 27, 3-[2-(4-Methoxybenzamido)phenylthiomethyl]-1,2,4-oxadiazole]",85%,73%,–
"O=C(Nc1ccccc1SCc1ncon1)c1ccco1 [Example 29, 3-(2-Furanoylaminophenylthiomethyl)1,2,4-oxadiazole]",100%,47%,–
O=C(Nc1ccccc1SCc1ncon1)NC1CCCCC1 [Example 35],39%,–,–
"Cl.Nc1ccccc1SCc1ncon1 [Example 3 - HCl salt, 3-(2-Aminophenylthiomethyl)-1,2,4-oxadiazole hydrochloride]",–,–,63 mg/kg
"Nc1cccc(Cl)c1SCc1ncon1 [Example 9, 3-(2-Amino-6-chlorophenylthiomethyl)-1,2,4-oxadiazole]",89.6%,32%,–
"O=C(Nc1ccccc1SCc1ncon1)c1cccs1 [Example 30, 3-(Thiophene-2-carbonylaminophenylthiomethyl)1,2,4-oxadiazole]",–,59%,–
"CN(C)c1ccccc1SCC1=NOCN1 [Example 53, 3-(2-Dimethylaminophenylthiomethyl)-4,5-dihydro-1,2,4-oxadiazole]",–,43%,–
"COc1ccc(C=Nc2ccccc2SCc2ncon2)cc1OC [Example 38, 3-[2-(3,4-Dimethoxybenzylideneamino)phenylthiomethyl]-1,2,4-oxadiazole]",36%,9%,–
"CCN(CC)c1ccccc1SCc1ncon1 [Example 45, 3-(2-Diethylaminophenylthiomethyl)-1,2,4-oxadiazole]",100%,84%,–
"CN(C)c1ccccc1SCc1noc(-c2ccccc2)n1 [Example 2, 3-(2-Dimethylaminophenylthiomethyl)-5-phenyl-1,2,4-oxadiazole]",83%,–,–
"CCN(C)c1ccccc1SCc1ncon1 [Example 46, 3-[2-(N-ethyl-N-methyl)aminophenylthiomethyl]1,2,4-oxadiazole]",98%,–,–
"O=[N+]([O-])c1ccc(Oc2ccc(NC(=S)Nc3ccccc3SCc3ncon3)cc2)cc1 [Example 36, N-[2-(1,2,4-oxadiazol-3-yl-methylthio)phenyl]-N^1-4-(4-nitrophenyloxy)phenyl thiourea]",19%,–,–
"Nc1ccccc1SCC1=NOCN1 [Example 51, 3-(2-Aminophenylthiomethyl)-4,5-dihydro-1,2,4-oxadiazole]",–,63%,–
